The results in this text go back to ChEMBL document CHEMBL4364295, “Discovery of a First-in-Class Receptor Interacting Protein 2 (RIP2) Kinase Specific Clinical Candidate, 2-((4-(Benzo[d]thiazol-5-ylamino)-6-(tert-butylsulfonyl)quinazolin-7-yl)oxy)ethyl Dihydrogen Phosphate, for the Treatment of Inflammatory Diseases” (J Med Chem, 2019).

SMILES strings stand for the structures. ≈ marks a conversion by molar mass, not a printed value. A value given as a limit tells only on which side of the number the result lay.

One data set deals with T1, Toll-like receptor 7 (Homo sapiens, UniProt Q9NYK1).
T1 sequence (Q9NYK1 whole entry): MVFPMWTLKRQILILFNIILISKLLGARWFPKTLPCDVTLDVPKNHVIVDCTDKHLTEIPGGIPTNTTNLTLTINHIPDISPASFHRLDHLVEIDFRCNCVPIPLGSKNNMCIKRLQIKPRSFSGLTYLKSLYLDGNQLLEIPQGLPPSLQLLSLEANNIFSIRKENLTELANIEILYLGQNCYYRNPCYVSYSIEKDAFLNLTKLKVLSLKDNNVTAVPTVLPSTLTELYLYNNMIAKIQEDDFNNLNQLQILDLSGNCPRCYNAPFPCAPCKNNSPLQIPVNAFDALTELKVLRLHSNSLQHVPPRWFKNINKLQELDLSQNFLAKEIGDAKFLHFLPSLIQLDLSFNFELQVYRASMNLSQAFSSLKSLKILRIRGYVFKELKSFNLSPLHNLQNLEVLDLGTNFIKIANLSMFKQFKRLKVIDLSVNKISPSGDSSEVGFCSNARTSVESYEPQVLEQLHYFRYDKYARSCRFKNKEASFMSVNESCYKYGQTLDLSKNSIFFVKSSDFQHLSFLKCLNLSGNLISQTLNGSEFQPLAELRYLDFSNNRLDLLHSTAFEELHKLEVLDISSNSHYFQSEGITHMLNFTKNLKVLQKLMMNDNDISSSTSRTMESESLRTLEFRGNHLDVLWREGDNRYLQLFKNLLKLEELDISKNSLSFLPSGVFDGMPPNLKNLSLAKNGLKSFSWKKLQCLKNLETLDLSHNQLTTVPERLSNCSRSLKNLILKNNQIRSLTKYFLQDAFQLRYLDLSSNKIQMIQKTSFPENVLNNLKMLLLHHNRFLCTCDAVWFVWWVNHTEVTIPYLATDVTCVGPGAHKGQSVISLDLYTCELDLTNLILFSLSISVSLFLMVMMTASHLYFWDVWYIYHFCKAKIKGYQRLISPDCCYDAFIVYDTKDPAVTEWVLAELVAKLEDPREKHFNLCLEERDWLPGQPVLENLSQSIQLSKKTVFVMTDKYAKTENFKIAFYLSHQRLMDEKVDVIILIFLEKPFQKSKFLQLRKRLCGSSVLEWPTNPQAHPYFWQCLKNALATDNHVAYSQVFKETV
Briefly: Inhibition of TLR7 in human monocytes assessed as reduction in gardiquimod-induced IL8 production. The class given is cell-based.

Data set [1] in a line: Solubility of the compound in FaSSIF measured after 4 hrs. The data set is classed as physicochemical.
The nature of data set [2]: Prodrug conversion in minipig hepatocytes assessed as (2S,3S,4S,5R,6R)-6-(2-(4-(benzo[d]thiazol-5-ylamino)-6-(tert-butylsulfonyl)quinazolin-7-yloxy)ethoxy)-3,4,5-trihydroxytetrahydro-2H-pyran-2-carboxylic acid formation at 20 uM measured after 4 hrs. The data set is classed as ADME, cell-based, Sus scrofa, Hepatocyte. As to conditions: pig.

Usually IC50 stands for the concentration that gives 50% inhibition. The solubility is how much of the substance goes into solution per volume. Lower therefore signals little dissolved substance. With `CC(C)(C)S(=O)(=O)c1cc2c(Nc3ccc4scnc4c3)ncnc2cc1OCCO`, the IC50 at Toll-like receptor 7 is greater than 10 µM. The molecule also showed a solubility at 4 h in data set [1] of 4 µg/mL (≈ 8.72 µM).

As for `CC(C)(C)S(=O)(=O)c1cc2c(Nc3ccc4scnc4c3)ncnc2cc1OCCOP(=O)(O)O.[CaH2]`, in data set [2], the Drug metabolism result is “Metabolite_Detected”.
